Measurements taken from patent publication US20150105252A1, “SUBSTITUTED PYRAZOLES AS HERBICIDES” (E I DU PONT DE NEMOURS AND COMPANY, priority 2013, published 2015).

Assays:
oilseed rape [1] = experiment: Test D postemergence; assay type: in vivo, Brassica napus; details: scale 0 to 100
How it was run: (§1)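 Visual 0-100 rating (100 = complete control) against untreated plants, made 14 to 21 days after treatment in a controlled environment. Compounds, formulated with surfactant in non-phytotoxic solvent, were applied either to seeds just sown in silt loam or to 1- to 4-leaf plants (2 to 18 cm) grown in peat-based medium.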

foxtail, green = experiment: Test D preemergence; assay type: in vivo, Setaria viridis; details: Preemergence, scale 0 to 100
How it was run: as §1

oilseed rape [2] = experiment: Test D preemergence; assay type: in vivo, Brassica napus; details: Preemergence, scale 0 to 100
How it was run: as §1

bluegrass [3] = experiment: Test D preemergence; assay type: in vivo, Poa annua; details: Preemergence, scale 0 to 100
How it was run: as §1

blackgrass = experiment: Test D postemergence; assay type: in vivo, Alopecurus myosuroides; details: scale 0 to 100
How it was run: as §1

field poppy = experiment: Test D preemergence; assay type: in vivo, Papaver rhoeas; details: Preemergence, scale 0 to 100
How it was run: as §1

ryegrass, Italian = experiment: Test D postemergence; assay type: in vivo, Lolium multiflorum; details: scale 0 to 100
How it was run: as §1

galium = experiment: Test D preemergence; assay type: in vivo, Galium aparine; details: Preemergence, scale 0 to 100
Text: (§2) Seeds of plant species selected from bluegrass (annual bluegrass, Poa annua), blackgrass (Alopecurus myosuroides), canarygrass (littleseed canarygrass, Phalaris minor), chickweed (common chickweed, Stellaria media), galium (catchweed bedstraw, Galium aparine), bromegrass, downy (downy bromegrass, Bromus tectorum), field poppy (Papaver rhoeas), field violet (Viola arvensis), foxtail, green (green foxtail, Setaria viridis), deadnettle (henbit deadnettle, Lamium amplexicaule), ryegrass, Italian (Italian ryegrass, Lolium multiflorum), kochia (Kochia scoparia), lambsquarters (Chenopodium album), oilseed rape (Brassica napus), pigweed (redroot pigweed, Amaranthus retroflexus), chamomile (scentless chamomile, Matricaria inodora), speedwell (bird's-eye speedwell, Veronica persica), barley, spring (spring barley, Hordeum vulgare), wheat, spring (spring wheat, Triticum aestivum), buckwheat, wild (wild buckwheat, Polygonum convolvulus), mustard, wild (wild mustard, Sinapis arvensis), oat, wild (wild oat, Avena fatua), radish, wild (wild radish, Raphanus raphanistrum), windgrass (Apera spica-venti), Russian thistle (Salsola kali), barley, winter (winter barley, Hordeum vulgare), and wheat, winter (winter wheat, Triticum aestivum) were planted into a silt loam soil and treated preemergence with test chemicals formulated in a non-phytotoxic solvent mixture which included a surfactant.
(§3) At the same time, these species were planted in pots containing Redi-Earth® planting medium (Scotts Company, 14111 Scottslawn Road, Marysville, Ohio 43041) comprising spaghnum peat moss, vermiculite, wetting agent and starter nutrients and treated with postemergence applications of the test chemicals formulated in the same manner. Plants ranged in height from 2 to 18 cm (1- to 4-leaf stage). Treated plants and controls were maintained in a controlled growth environment for 14 to 21 days after which time all species were compared to controls and visually evaluated. Plant response ratings, summarized in Table D, are based on a scale of 0 to 100 where 0 is no effect and 100 is complete control. A dash (-) response means no test result.

bluegrass [4] = experiment: Test D postemergence; assay type: in vivo, Poa annua; details: scale 0 to 100
How it was run: as §1

canarygrass = experiment: Test D postemergence; assay type: in vivo, Phalaris minor; details: scale 0 to 100
How it was run: as §1

wheat, spring = experiment: Test D preemergence; assay type: in vivo, Triticum aestivum; details: Preemergence, scale 0 to 100
How it was run: as §1

wheat, winter = experiment: Test D preemergence; assay type: in vivo, Triticum aestivum; details: Preemergence, scale 0 to 100
How it was run: as §1

buckwheat, wild = experiment: Test D postemergence; assay type: in vivo, Polygonum convolvulus; details: scale 0 to 100
How it was run: as §1

field violet = experiment: Test D preemergence; assay type: in vivo, Viola arvensis; details: Preemergence, scale 0 to 100
How it was run: as §1

chickweed = experiment: Test D postemergence; assay type: in vivo, Stellaria media; details: scale 0 to 100
How it was run: as §1

bromegrass, downy = experiment: Test D preemergence; assay type: in vivo, Bromus tectorum; details: Preemergence, scale 0 to 100
How it was run: as §1

deadnettle = experiment: Test D postemergence; assay type: in vivo, Lamium amplexicaule; details: scale 0 to 100
How it was run: as §1

kochia = experiment: Test D postemergence; assay type: in vivo, Kochia scoparia; details: scale 0 to 100
How it was run: as §1

radish, wild = experiment: Test D postemergence; assay type: in vivo, Raphanus raphanistrum; details: scale 0 to 100
Text: as §2, §3

windgrass = experiment: Test D preemergence; assay type: in vivo, Apera spica-venti; details: Preemergence, scale 0 to 100
How it was run: as §1

mustard, wild = experiment: Test D postemergence; assay type: in vivo, Sinapis arvensis; details: scale 0 to 100
Text: as §2, §3

## CCCc1cc(C(=O)NC2CC2)nn1Cc1cc(C(F)(F)F)nn1C [Compound 202]
Oilseed rape [1]; Postemergence, 31 g ai/ha
  Oilseed Rape plant response rating: 40
Oilseed rape [1]; Postemergence, 125 g ai/ha
  Oilseed Rape plant response rating: 50
Oilseed rape [1]; Postemergence, 250 g ai/ha
  Oilseed Rape plant response rating: 60
Oilseed rape [1]; postemergence, 62 g ai/ha
  Oilseed Rape plant response rating: 40
foxtail, green; 62 g ai/ha
  Plant response rating, Foxtail, Green: 35
foxtail, green; 125 g ai/ha
  Plant response rating, Foxtail, Green: 80
foxtail, green; 250 g ai/ha
  Plant response rating, Foxtail, Green: 100
Oilseed rape [2]; 62 g ai/ha
  Plant response rating, Oilseed Rape: 65
Oilseed rape [2]; 125 g ai/ha
  Plant response rating, Oilseed Rape: 70
Oilseed rape [2]; 250 g ai/ha
  Plant response rating, Oilseed Rape: 90
Bluegrass [3]; 31 g ai/ha
  Plant response rating, Bluegrass: 10
Bluegrass [3]; 62 g ai/ha
  Plant response rating, Bluegrass: 5
Bluegrass [3]; 125 g ai/ha
  Plant response rating, Bluegrass: 50
Bluegrass [3]; 250 g ai/ha
  Plant response rating, Bluegrass: 80
blackgrass; Postemergence, 31 g ai/ha
  Blackgrass plant response rating: 15
blackgrass; Postemergence, 125 g ai/ha
  Blackgrass plant response rating: 25
blackgrass; Postemergence, 250 g ai/ha
  Blackgrass plant response rating: 35
blackgrass; postemergence, 62 g ai/ha
  Blackgrass plant response rating: 15
Field poppy; 62 g ai/ha
  Plant response rating, Field Poppy: 100
Field poppy; 125 g ai/ha
  Plant response rating, Field Poppy: 100
Field poppy; 250 g ai/ha
  Plant response rating, Field Poppy: 100
ryegrass, Italian; Postemergence, 31 g ai/ha
  Ryegrass, Italian plant response rating: 10
ryegrass, Italian; Postemergence, 125 g ai/ha
  Ryegrass, Italian plant response rating: 10
ryegrass, Italian; Postemergence, 250 g ai/ha
  Ryegrass, Italian plant response rating: 15
ryegrass, Italian; postemergence, 62 g ai/ha
  Ryegrass, Italian plant response rating: 10
galium; 62 g ai/ha
  Plant response rating, Galium: 35
galium; 125 g ai/ha
  Plant response rating, Galium: 70
galium; 250 g ai/ha
  Plant response rating, Galium: 100
Bluegrass [4]; Postemergence, 31 g ai/ha
  Bluegrass plant response rating: 20
Bluegrass [4]; Postemergence, 125 g ai/ha
  Bluegrass plant response rating: 25
Bluegrass [4]; Postemergence, 250 g ai/ha
  Bluegrass plant response rating: 35
Bluegrass [4]; postemergence, 62 g ai/ha
  Bluegrass plant response rating: 20
canarygrass; Postemergence, 31 g ai/ha
  Canarygrass plant response rating: 15
canarygrass; Postemergence, 125 g ai/ha
  Canarygrass plant response rating: 15
canarygrass; Postemergence, 250 g ai/ha
  Canarygrass plant response rating: 20
canarygrass; postemergence, 62 g ai/ha
  Canarygrass plant response rating: 15
wheat, spring; 62 g ai/ha
  Plant response rating, Wheat, Spring: 0
wheat, spring; 125 g ai/ha
  Plant response rating, Wheat, Spring: 10
wheat, spring; 250 g ai/ha
  Plant response rating, Wheat, Spring: 25
wheat, winter; 62 g ai/ha
  Plant response rating, Wheat, Winter: 5
wheat, winter; 125 g ai/ha
  Plant response rating, Wheat, Winter: 25
wheat, winter; 250 g ai/ha
  Plant response rating, Wheat, Winter: 60
buckwheat, wild; Postemergence, 31 g ai/ha
  Buckwheat, Wild plant response rating: 40
buckwheat, wild; Postemergence, 125 g ai/ha
  Buckwheat, Wild plant response rating: 70
buckwheat, wild; Postemergence, 250 g ai/ha
  Buckwheat, Wild plant response rating: 90
buckwheat, wild; postemergence, 62 g ai/ha
  Buckwheat, Wild plant response rating: 40
Field violet; 62 g ai/ha
  Plant response rating, Field Violet: 25
Field violet; 125 g ai/ha
  Plant response rating, Field Violet: 100
Field violet; 250 g ai/ha
  Plant response rating, Field Violet: 100
chickweed; Postemergence, 31 g ai/ha
  Chickweed plant response rating: 55
chickweed; Postemergence, 125 g ai/ha
  Chickweed plant response rating: 45
chickweed; Postemergence, 250 g ai/ha
  Chickweed plant response rating: 70
chickweed; postemergence, 62 g ai/ha
  Chickweed plant response rating: 55
bromegrass, downy; 31 g ai/ha
  Plant response rating, Bromegrass, Downy: 25
bromegrass, downy; 62 g ai/ha
  Plant response rating, Bromegrass, Downy: 35
bromegrass, downy; 125 g ai/ha
  Plant response rating, Bromegrass, Downy: 35
bromegrass, downy; 250 g ai/ha
  Plant response rating, Bromegrass, Downy: 50
deadnettle; Postemergence, 31 g ai/ha
  Deadnettle plant response rating: 55
deadnettle; Postemergence, 125 g ai/ha
  Deadnettle plant response rating: 60
deadnettle; Postemergence, 250 g ai/ha
  Deadnettle plant response rating: 65
deadnettle; postemergence, 62 g ai/ha
  Deadnettle plant response rating: 55
kochia; Postemergence, 31 g ai/ha
  Kochia plant response rating: 70
kochia; Postemergence, 125 g ai/ha
  Kochia plant response rating: 75
kochia; Postemergence, 250 g ai/ha
  Kochia plant response rating: 85
kochia; postemergence, 62 g ai/ha
  Kochia plant response rating: 70
radish, wild; Postemergence, 31 g ai/ha
  Radish, Wild plant response rating: 55
radish, wild; Postemergence, 125 g ai/ha
  Radish, Wild plant response rating: 65
radish, wild; Postemergence, 250 g ai/ha
  Radish, Wild plant response rating: 75
radish, wild; postemergence, 62 g ai/ha
  Radish, Wild plant response rating: 55
windgrass; 62 g ai/ha
  Plant response rating, Windgrass: 55
windgrass; 125 g ai/ha
  Plant response rating, Windgrass: 75
windgrass; 250 g ai/ha
  Plant response rating, Windgrass: 100
mustard, wild; Postemergence, 31 g ai/ha
  Mustard, Wild plant response rating: 70
mustard, wild; Postemergence, 125 g ai/ha
  Mustard, Wild plant response rating: 70
mustard, wild; Postemergence, 250 g ai/ha
  Mustard, Wild plant response rating: 75
mustard, wild; postemergence, 62 g ai/ha
  Mustard, Wild plant response rating: 70
